Assay results from ChEMBL document CHEMBL3045904, “Synthesis, AM1 calculation, and biological studies of thiopyran-4-one and their azine derivatives” (2007).
≈ marks a conversion by molar mass, not a printed value. Calls of active or inactive are those of the source. The rule behind the calls is not given here.

Experiments:
Assay type in all cases: functional
[1] = test system: Pseudomonas aeruginosa; experiment: Antibacterial activity against Pseudomonas aeruginosa after 24 hr by twofold serial dilution method
[2] = test system: Staphylococcus aureus; experiment: Antibacterial activity against Staphylococcus aureus after 24 hr by two-fold serial dilution method
[3] = test system: Bacillus subtilis; experiment: Antibacterial activity against Bacillus subtilis after 24 hr by two-fold serial dilution method
[4] = test system: Enterococcus faecalis; experiment: Antibacterial activity against Enterococcus faecalis after 24 hr by two-fold serial dilution method
[5] = test system: Escherichia coli; experiment: Antibacterial activity against Escherichia coli after 24 hr by two-fold serial dilution method
[6] = test system: Aspergillus flavus; experiment: Antifungal activity against Aspergillus flavus after 72 to 96 hr by two-fold serial dilution method
[7] = test system: Candida; experiment: Antifungal activity against Candida-51 after 72 to 96 hr by two-fold serial dilution method
[8] = test system: Candida; experiment: Antifungal activity against Candida-6 after 72 to 96 hr by two-fold serial dilution method
[9] = test system: Aspergillus niger; experiment: Antifungal activity against Aspergillus niger after 72 to 96 hr by two-fold serial dilution method

Structure (SMILES) | MIC [1] | MIC [2] [µg/mL] | MIC [3] [µg/mL] | MIC [4] | MIC [5] | MIC [6] [µg/mL] | MIC [7] | MIC [8] [µg/mL] | MIC [9]
CN[C@@H]1[C@H](O[C@H]2[C@H](O[C@H]3[C@H](O)[C@@H](O)[C@H](N=C(N)N)[C@@H](O)[C@@H]3N=C(N)N)O[C@@H](C)[C@]2(O)C=O)O[C@@H](CO)[C@H](O)[C@H]1O [STREPTOMYCIN] | 25 µg/mL (≈ 43 µM) | 25 (≈ 43 µM) | 12.5 (≈ 21.5 µM) | 50 µg/mL (≈ 86 µM) | 12.5 µg/mL (≈ 21.5 µM) | – | – | – | –
N/N=C1\C[C@@H](c2ccccc2)S[C@@H](c2ccccc2)C1 (relative stereo) | 100 µg/mL (≈ 354 µM) | 100 (≈ 354 µM) | 100 (≈ 354 µM) | 100 µg/mL (≈ 354 µM) | 50 µg/mL (≈ 177 µM) | 100 (≈ 354 µM) | 100 µg/mL (≈ 354 µM) | 50 (≈ 177 µM) | 100 µg/mL (≈ 354 µM)
O=C1C[C@@H](c2ccccc2)S[C@@H](c2ccccc2)C1 | inactive | 100 (≈ 373 µM) | 100 (≈ 373 µM) | inactive | inactive | 100 (≈ 373 µM) | inactive | 100 (≈ 373 µM) | inactive
C[C@@H]1[C@H](O)[C@@H](C)/C=C/C=C/C=C/C=C/C=C/C=C/C=C/[C@H](O[C@@H]2O[C@H](C)[C@@H](O)[C@H](N)[C@@H]2O)C[C@@H]2O[C@](O)(C[C@@H](O)C[C@@H](O)[C@H](O)CC[C@@H](O)C[C@@H](O)CC(=O)O[C@H]1C)C[C@H](O)[C@H]2C(=O)O [AMPHOTERICIN B] | – | – | – | – | – | 50 (≈ 54.1 µM) | 25 µg/mL (≈ 27.1 µM) | 25 (≈ 27.1 µM) | 50 µg/mL (≈ 54.1 µM)

Now from value to compound:

MIC [1] | MIC [2] [µg/mL] | MIC [3] [µg/mL] | MIC [4] | MIC [5] | MIC [6] [µg/mL] | MIC [7] | MIC [8] [µg/mL] | MIC [9] | Structure (SMILES)
25 µg/mL (≈ 64.7 µM) | 25 (≈ 64.7 µM) | 6.25 (≈ 16.2 µM) | 25 µg/mL (≈ 64.7 µM) | 12.5 µg/mL (≈ 32.3 µM) | 50 (≈ 129 µM) | 12.5 µg/mL (≈ 32.3 µM) | 12.5 (≈ 32.3 µM) | 25 µg/mL (≈ 64.7 µM) | Oc1ccccc1/C=N/N=C1\C[C@@H](c2ccccc2)S[C@@H](c2ccccc2)C1 (relative stereo)
inactive | 100 (≈ 353 µM) | 100 (≈ 353 µM) | inactive | inactive | 100 (≈ 353 µM) | inactive | 100 (≈ 353 µM) | inactive | O/N=C1\C[C@@H](c2ccccc2)S[C@@H](c2ccccc2)C1
50 µg/mL (≈ 93.8 µM) | 25 (≈ 46.9 µM) | 50 (≈ 93.8 µM) | 100 µg/mL (≈ 188 µM) | 100 µg/mL (≈ 188 µM) | 100 (≈ 188 µM) | 50 µg/mL (≈ 93.8 µM) | 100 (≈ 188 µM) | 50 µg/mL (≈ 93.8 µM) | c1ccc([C@@H]2C/C(=N\N=C3/C[C@@H](c4ccccc4)S[C@@H](c4ccccc4)C3)C[C@H](c3ccccc3)S2)cc1
50 µg/mL (≈ 125 µM) | 25 (≈ 62.4 µM) | 6.25 (≈ 15.6 µM) | 25 µg/mL (≈ 62.4 µM) | 12.5 µg/mL (≈ 31.2 µM) | 100 (≈ 250 µM) | 12.5 µg/mL (≈ 31.2 µM) | 12.5 (≈ 31.2 µM) | 50 µg/mL (≈ 125 µM) | COc1ccc(/C=N/N=C2\C[C@@H](c3ccccc3)S[C@@H](c3ccccc3)C2)cc1 (relative stereo)
50 µg/mL (≈ 120 µM) | 25 (≈ 60.2 µM) | 25 (≈ 60.2 µM) | 50 µg/mL (≈ 120 µM) | 100 µg/mL (≈ 241 µM) | 100 (≈ 241 µM) | 25 µg/mL (≈ 60.2 µM) | 50 (≈ 120 µM) | 100 µg/mL (≈ 241 µM) | O=[N+]([O-])c1ccccc1/C=N/N=C1\C[C@@H](c2ccccc2)S[C@@H](c2ccccc2)C1 (relative stereo)
